According to PMC11429203, “Developing New Peptides and Peptide–Drug Conjugates for Targeting the FGFR2 Receptor-Expressing Tumor Cells and 3D Spheroids” (Biomimetics, 2024):
Where a SMILES comes first, the peptide text is derived from it. Where no end group is shown, it is not given here. The star is where a group is joined. Doxorubicin(3'-N) = COc1cccc2c1C(=O)c1c(O)c3c(c(O)c1C2=O)C[C@@](O)(C(=O)CO)C[C@@H]3O[C@H]1C[C@H](N*)[C@H](O)[C@H](C)O1

How the values were obtained:
Type in all cases: cell-based, human
KATO (III) tumor cells = assay: Phase contrast imaging of cell morphology after treatment; details: 1 µM, 24 h, phase contrast microscopy
Method: Cells were plated in 96-well plates at a density of 1 × 10^4 cells/well. WST-8 assays (Cayman Chemicals, Ann Arbor, MI, USA) were conducted in triplicate for non-cancer primary fibroblasts, as well as for KATO III cells, following manufacturer instructions from the assay kit. In general, varying concentrations of the peptides and the DOX conjugates were utilized. The concentrations used were 0.1 µM, 0.5 µM, 1 µM, 2 µM and 5 µM. Neat DOX (1 µM, 2 µM) was also compared. The peptides or drug conjugates or DOX were allowed to incubate with cells for 24 h, and imaged using a phase contrast optical microscope before analysis. Following incubation with WST-8 reagent according to manufacturer instructions, absorbance at 450 nm was measured using a Biotek microplate reader. The absorbance of DOX in media was subtracted.
To investigate the impact of the peptides and the peptide–DOX conjugates on KATO (III) tumor cells, we conducted cytotoxicity studies.

[1] = system: KATO III gastric cancer cells; assay: WST-8 cytotoxicity assay, tumor cells; details: 24 h, WST-8, highest concentration (5 µM), triplicate
Method: Three cell lines were cultured in 50 mL sterile falcon tissue culture flasks. These included the FGFR2-expressing KATO III gastric cancer cell line (ATCC HTB-103), human colon cancer-associated tumor fibroblasts (HC-6231, Cell Biologics), and primary lung fibroblasts (normal) as control (ATCC-PCS-201-013). Both lines of fibroblasts were grown in Fibroblast Growth Media, and KATO III cells were cultured in Iscove’s Modified Dulbecco’s Medium (IMDM). All growth media were supplement with 10% fetal bovine serum (ATCC), 3 mL of 1X antibiotic-antimycotic mixture per 500 mL medium (GIBCO), 10 units/mL penicillin and 10 μg/mL streptomycin (GIBCO). Each cell line was incubated at 37 °C in a 5% CO2 incubator. Cells were grown to confluence, and the medium was changed every 2 to 3 days. Confluent cells were split twice a week.
Cells were plated in 96-well plates at a density of 1 × 10^4 cells/well. WST-8 assays (Cayman Chemicals, Ann Arbor, MI, USA) were conducted in triplicate for non-cancer primary fibroblasts, as well as for KATO III cells, following manufacturer instructions from the assay kit. […] Following incubation with WST-8 reagent according to manufacturer instructions, absorbance at 450 nm was measured using a Biotek microplate reader. The absorbance of DOX in media was subtracted.
To quantify the effects of the cytotoxicity of the peptides and the DOX conjugates, we conducted WST-8 assays. […]

[2] = system: co-cultured spheroids of KATO (III) cells and colon tumor-associated fibroblasts (CAFs); assay: Permeation into 3D co-cultured spheroids (fluorescence imaging); details: for Permeation of DOX conjugates and neat DOX into spheroids / Permeation of carboxyfluorescein-tagged peptides into spheroids: 1 µM, spheroids grown 6 days at 2000 cells/well, fluorescence imaging; for Permeation of DOX conjugates and neat DOX into spheroids: inherent DOX fluorescence; for Penetration depth from Image J plot profiles of fluorescence intensity, periphery to center: semi-quantitative mean normalized intensity, mean from 3 spheroids; for Permeation of carboxyfluorescein-tagged peptides into spheroids: 24 h incubation
Method: To mimic the tumor microenvironment, 3D cultures of tumor cells (spheroids) were grown. For growing spheroids, co-cultures of human colon-associated tumor fibroblasts and KATO III gastric cancer cells were grown in a 1:3 ratio in a growth media containing IMDM and fibroblast growth medium. Spheroids grown at 2000 cells/well and 4000 cells/well were co-cultured in Nunclon Sphera nonadherent 12-well plates and allowed to grow over a period of two weeks. The growth of the spheroids was monitored using optical microscopy. Media was cautiously removed every two days, and replaced with new medium.
The co-cultured spheroids were grown at a density of 2000 cells/well for six days prior to treatment with the peptides or the peptide–drug conjugates. To visualize the internalization of the peptides, those were first tagged with fluorescein to allow for visualization through fluorescence microscopy. For tagging, each peptide was tagged with NHS-Fluorescein (5/6-carboxyfluorescein succinimidyl ester to allow for binding with the amine group of the peptides). To each peptide solution (10 µM), 1 µM of the dye solution was added and allowed to shake in the dark for 24 h. The solutions were then centrifuged and washed with deionized water twice to remove any unbound dye. Then, peptide solutions were vortexed and allowed to incubate with the spheroids. For the drug conjugates, no tagging was done, due to inherent fluorescence of DOX. In general, 1 µM solutions of the peptides or drug conjugates were used. The spheroids were then visualized using fluorescent microscopy using an inverted Amscope IN480TC-20MB13 microscope at various magnifications.
To visualize the internalization of the peptides and the peptide–drug conjugates in the spheroids, we conducted fluorescence microscopy using an Amscope Inverted Phase-Contrast Fluorescence Microscope. Samples were imaged at various magnifications.
It is well known that constrained interstitial penetration may impede the diffusion of drugs into tumors, thus affecting efficacy. […] Their entry within the spheroids was examined through fluorescence imaging. In the case of the conjugates, because DOX is inherently fluorescent, fluorescence images were taken without tagging. […] The plot profiles obtained from the edge of the spheroid to the center were measured. On average, five measurements were carried out for images of each of the spheroids that were incubated with DOX-conjugated peptides, as well as with neat DOX. The fluoresence intensity from the periphery to the center of the spheroid was measured.

Compound	Cell morphology after treatment (KATO (III) tumor cells)	Cell viability [1] [%]	Permeation of DOX conjugates and neat DOX into spheroids [2]	Penetration depth from Image J plot profiles of fluorescence intensity, periphery to center [2]	Permeation of carboxyfluorescein-tagged peptides into spheroids [2]
COc1cccc2c1C(=O)c1c(O)c3c(c(O)c1C2=O)C[C@@](O)(C(=O)CO)C[C@@H]3O[C@H]1C[C@H](NC(=O)CNC(=O)[C@H](C)NC(=O)[C@H](CO)NC(=O)[C@H](CS)NC(=O)[C@H](C)N)[C@H](O)[C@H](C)O1 [A-pep-DOX] (H-ACSAG-{Doxorubicin(3'-N)}; N-terminus assumed)	appeared to bleb and burst	9	higher fluorescence	penetrate deeper	–
COc1cccc2c1C(=O)c1c(O)c3c(c(O)c1C2=O)C[C@@](O)(C(=O)CO)C[C@@H]3O[C@H]1C[C@H](N)[C@H](O)[C@H](C)O1 [DOX, Doxorubicin, reference compound]	–	–	marginal internalization	–	–
COc1cccc2c1C(=O)c1c(O)c3c(c(O)c1C2=O)C[C@@](O)(C(=O)CO)C[C@@H]3O[C@H]1C[C@H](NC(=O)CC[C@H](NC(=O)[C@@H]2CCCN2C(=O)[C@@H](NC(=O)[C@H](CC(C)C)NC(=O)[C@@H](NC(=O)[C@H](Cc2c[nH]cn2)NC(=O)[C@@H]2CCCN2C(=O)[C@@H](N)CC(C)C)C(C)C)[C@@H](C)O)C(=O)N[C@@H](C)C(=O)NCC(=O)N[C@@H](C)C(=O)N[C@H](C(=O)N[C@H]2C[C@H](O[C@H]3C[C@](O)(C(=O)CO)Cc4c(O)c5c(c(O)c43)C(=O)c3c(OC)cccc3C5=O)O[C@@H](C)[C@H]2O)[C@@H](C)O)[C@H](O)[C@H](C)O1 [L-pep-(DOX)2]	–	7	comparatively lower intensity of fluorescence	–	–
CC(C)C[C@H](NC(=O)[C@@H](NC(=O)[C@H](Cc1c[nH]cn1)NC(=O)[C@@H]1CCCN1C(=O)[C@@H](N)CC(C)C)C(C)C)C(=O)N[C@H](C(=O)N1CCC[C@H]1C(=O)N[C@@H](CCC(=O)O)C(=O)N[C@@H](C)C(=O)NCC(=O)N[C@@H](C)C(=O)N[C@H](C(=O)O)[C@@H](C)O)[C@@H](C)O [L-pep]	appeared spherical	–	–	–	relatively higher fluorescence was observed in the outlayers compared to the core
ACSAG [A-pep]	loss of morphology and adhesive properties	–	–	–	higher internalization
ACSAGLPHVLTPEAGATGASCA-(DOX)2 [Trimer-pep-(DOX)2]	–	–	relatively higher penetration	penetrate deeper	–
